The values that follow come from patent EP2441755A1 (Almirall, S.A., priority 2010, dated 2012).

Read-outs that look alike come from different tables or passages of the source.

Assay [1] concerns the target T1, JAK2 (aa 826-1132) (Homo sapiens, UniProt O60674).
T1 construct: JAK2 (aa 826-1132); GST (N); purchased Carna Bioscences; host or cells: baculovirus expression system
Nature of the assay: In vitro JAK kinase assay (TR-FRET), JAK2. It is filed as biochemical. To be noted: ATP 0.2 µM, poly (GT)-Biotin 20 nM, 30 minutes at room temperature. The procedure:
(§1) In vitro JAK kinase Assays
(§2) Compounds were screened for their ability to inhibit JAK1, JAK2 and JAK3 using the assays as indicated below.
(§3) The catalytic domains of human JAK1 (aa 850-1154), JAK2 (aa 826-1132), JAK3 (aa 795-1124) and Tyk2 (aa 871-1187) were expressed as N-terminal GST-fusion proteins using a baculovirus expression system and were purchased from Carna Bioscences. The enzymatic activity was assayed using as substrate a biotinylated peptide, poly (GT)-Biotin (CisBio). The peptide concentration in the reactions was 60 nM for JAK1, 20 nM for JAK2, 140 nM for JAK3 and 50 nM for Tyk2. The degree of phosphorylation was detected by TR-FRET (time-resolved fluorescence energy transfer).
(§4) IC50s of compounds were measured for each kinase in a reaction mixture containing the enzyme, ATP and the peptide in 8 mM MOPS (pH 7.0), 10 mM MgCl2, 0.05% β-mercaptoethanol, 0.45 mg/mL BSA. The ATP concentration in the reactions was 3 µM for JAK1, 0.2 µM for JAK2, 0.6 µM for JAK3 and 1.8 µM for Tyk2. The enzymatic reactions took place for 30 minutes at room temperature. Then, the reactions were stopped with 20 µL of quench detection buffer (50 mM HEPES, 0.5 M KF, EDTA 0.25 M, 0.1% (w/v) BSA, pH 7.5) containing 0.115 µg/mL of anti-phosphoTyr (PT66)-Cryptate (CisBio) and a variable concentration of SA-XL665 (CisBio) to keep the SA-B ratio constant. Incubate for 3 h and read on Victor 2V spectrofluorometer (PerkinElmer) set to read fluorescence resonance energy transfer.

The target of assay [2] is T2, JAK3 (aa 795-1124) (Homo sapiens, UniProt P52333).
T2 construct: JAK3 (aa 795-1124); GST (N); purchased Carna Bioscences; host or cells: baculovirus expression system
The assay is described as follows: In vitro JAK kinase assay (TR-FRET), JAK3. It is filed as biochemical. To be noted: ATP 0.6 µM, poly (GT)-Biotin 140 nM, 30 minutes at room temperature. The procedure: as §1, §2, §3, §4

Assay [3] addresses T3, human JAK1 (aa 850-1154) (Homo sapiens, UniProt P23458).
T3 construct: human JAK1 (aa 850-1154); GST (N); purchased Carna Bioscences; host or cells: baculovirus expression system
The assay is described as follows: In vitro JAK kinase assay (TR-FRET), JAK1. To be noted: ATP 3 µM, poly (GT)-Biotin 60 nM, 30 minutes at room temperature. It is filed as biochemical. The procedure:
as §1, §2, §3, §4
(In general: Time-resolved FRET reads energy transfer from a long-lived donor to a nearby acceptor.)

Assay [4] concerns the target T4, Recombinant human full-length Syk (Homo sapiens, UniProt P43405).
T4 construct: Recombinant human full-length Syk was supplied by Millipore; purchased Millipore
Nature of the assay: Syk enzyme assay - radioactive filtration kinase assay. It is filed as biochemical. On the procedure:
Syk Enzyme assay- Radioactive filtration kinase assay
Recombinant human full-length Syk was supplied by Millipore. The activity of Syk kinase was assessed using a radioactive filtration kinase assay. […] The reaction was initiated by the addition of 14.5 µl of 0.36 µCi [γ-^33P] ATP (10 mCi/ml, PerkinElmer). This was prepared in a half-area NBS plate (Corning) and allowed to stand at room temperature for 40 min. 15 µl of reaction mixture was transferred to a filter plate (Millipore) previously pre-wetted with a solution of 75 mM phosphoric acid. The reaction was terminated with the addition of 200 µl phosphoric acid. The filter plate was washed three times under vacuum on a vacuum manifold (Millipore cat# MSVMHTS00) at 8" Hg vacuum level with 200 µl phosphoric acid per wash. 30 µl Optiphase™ Supermix (PerkinElmer) was added to each test well and allowed to incubate for at least 1 h before counting. Radioactivity counting was performed in a Wallac MicroBeta®, and the tyrosine phosphorylation activity by Syk was calculated.

Assay [5] relates to LAD2 cells. The assay is described as follows: LAD2 cells assay (degranulation, β-hexosaminidase release). It is filed as cell-based. To be noted: Homo sapiens, 0.5 h; IgE-sensitized LAD2 cells, 30 min with compound, activated with 125 ng/ml streptavidin; released β-hexosaminidase; read-out: LAD2IC50. From the text:
LAD2 is a human mast cell line depending on stem cell factor for its survival, maturation and differentiation. This mast cell line was established by the NIH from bone marrow aspirates from a patient with mast cell sarcoma. LAD2 cells resemble CD34+ - derived human mast cells as they have granules containing tryptase, histamine and β-hexosaminidase. They also express c-kit and FcεRI (Kirshenbaum, et al., Leukemia Research 27: 677-682, 2003).
Sensitization of LAD2 cells
Cells were sensitized (0.2x10^6 cells/ml) in its normal growth factor (Complete StemPro-34 SFM, Gibco 10639-011 containing StemPro-34 nutrient supplement (1/40); glutamine (2 mM) and supplemented with 100 ng/ml SCF) by adding 100 ng/ml of biotin-labeled IgE (USBiological) overnight (16-18 h, 37º, 5% CO2) in a humidified atmosphere (90%).
Compounds were prepared from a 10^-2M stock in 100% DMSO to give seven successive 1/3 dilutions in DMSO. From each concentration, 2 further 1/10 dilutions were prepared in release buffer (137 mM NaCl, 2.70 mM KCI, 0.4 mM NaH2PO4, 5.6 mM (D)-glucose, 1.8 mM CaCl2, 1.3 mM MgSO4, 0.025% BSA). Finally, 5 µl from each diluted concentration were transferred into the assay plate (flat 96-well Nunc). The final compound concentrations tested ranged from 1x10^-5M to […] with a final proportion of DMSO in the assay of 0.1 %. Control wells were treated with 0.1 % DMSO.
Sensitized LAD2 cells were centrifuged (300 g, 3 min, R.T.) and washed 2 times with release buffer. Cells were resuspended in release buffer and adjusted to a density of 0.2x10^6/ml. 45 µl of the adjusted cells were transfered to the assay plate (∼10,000cells/well) containg 5 µl of the final compound concentrations. LAD2 cells were incubated with the compound for 30 min (37 °C, 5% CO2 90% of humidity) and then activated with 125 ng/ml of streptavidin (Pierce 21125) for 30 min (37 °C, 5% CO2, 90% of humidity). After the activation, cells were centrifuged at 1200 g, 10 min, 12 °C and supernatats were removed and transfered to another well for determination of released β-hexosaminidase. Empty wells were filled with 50 µl of release buffer for determination of intracellular β-hexosaminidase. Cells were lysed with 2 cycles of freeze-thaw.
Cells were incubated for 90 minutes, 37 °C with 1 mM β-hexosaminidase substrate (p-nitrophenyl N-acetyl-D-glucosamide, in citric buffer, pH 4.5). Reaction was stopped with 0.4 M glycine solution (pH 10.0) and the plate is read immediately at 405 nm.

Setting [6] is: Syk 1nM final, poly-GT 100 µg/ml, [γ-33P] ATP, 40 min at room temperature, read-out: Syk IC50.

T3 sequence (P23458 850-1154): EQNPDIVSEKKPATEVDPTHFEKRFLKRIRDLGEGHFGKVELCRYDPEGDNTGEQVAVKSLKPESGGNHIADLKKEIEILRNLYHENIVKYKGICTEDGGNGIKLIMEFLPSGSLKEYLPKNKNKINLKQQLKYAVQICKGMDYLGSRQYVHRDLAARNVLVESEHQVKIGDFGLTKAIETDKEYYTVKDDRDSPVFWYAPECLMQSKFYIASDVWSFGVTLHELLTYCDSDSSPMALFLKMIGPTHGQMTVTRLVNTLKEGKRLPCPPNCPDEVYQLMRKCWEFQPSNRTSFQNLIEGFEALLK
T1 sequence (O60674 826-1132): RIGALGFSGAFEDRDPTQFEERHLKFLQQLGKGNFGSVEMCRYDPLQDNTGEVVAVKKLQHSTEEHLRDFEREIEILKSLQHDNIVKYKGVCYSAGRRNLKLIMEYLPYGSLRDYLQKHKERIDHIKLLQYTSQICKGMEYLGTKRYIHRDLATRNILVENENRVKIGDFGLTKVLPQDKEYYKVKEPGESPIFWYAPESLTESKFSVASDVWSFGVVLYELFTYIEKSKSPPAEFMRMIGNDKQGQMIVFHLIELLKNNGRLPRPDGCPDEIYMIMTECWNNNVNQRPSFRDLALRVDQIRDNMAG
T2 sequence (P52333 795-1124): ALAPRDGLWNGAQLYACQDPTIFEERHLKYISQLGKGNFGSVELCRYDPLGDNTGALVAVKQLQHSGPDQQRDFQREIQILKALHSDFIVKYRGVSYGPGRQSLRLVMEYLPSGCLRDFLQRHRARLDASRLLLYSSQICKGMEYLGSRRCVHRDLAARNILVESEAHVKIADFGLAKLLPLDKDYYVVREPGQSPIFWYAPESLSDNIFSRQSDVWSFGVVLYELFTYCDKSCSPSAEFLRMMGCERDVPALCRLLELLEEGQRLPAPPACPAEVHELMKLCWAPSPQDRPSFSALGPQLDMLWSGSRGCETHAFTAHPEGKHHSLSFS

On to `COc1cccc(CC(=O)Nc2cc(Nc3cnccn3)nc(-c3ccnc(N4CCNCC4)c3)c2)c1` [Example 78, 2-(3-Methoxyphenyl)-N-[2'-piperazin-1-yl-6-(pyrazin-2-ylamino)-2,4'-bipyridin-4-yl]acetamide], for which the IC50 was less than 100 nM in assay [1], 100 to 1000 nM in assay [2] and more than 1000 nM in assay [3].

`O=C(O)c1ccc(C(=O)Nc2cc(Nc3cnccn3)nc(-c3ccnc(N4CCNCC4)c3)c2)cc1` [Example 79, 4-({[2'-Piperazin-1-yl-6-(pyrazin-2-ylamino)-2,4'-bipyridin-4-yl]amino}carbonyl) benzoic acid]: the IC50 in assay [1] is less than 100 nM; in assay [2], 100 to 1000 nM; in assay [4], 8 nM; in assay [5] it was 140 nM.

In the case of `O=C(Nc1cc(Nc2cnccn2)nc(-c2ccnc(N3CCNCC3)c2)c1)c1ccc(F)cc1` [Example 80, 4-Fluoro-N-[2'-piperazin-1-yl-6-(pyrazin-2-ylamino)-2,4'-bipyridin-4-yl]benzamide], the IC50 is less than 100 nM in assay [1]; 100 to 1000 nM in assay [2]; more than 1000 nM in assay [3]; 6 nM in assay [4] (setting [6]); 290 nM in assay [5].

For `O=C(Nc1cc(Nc2cnccn2)nc(-c2ccnc(N3CCNCC3)c2)c1)c1cccnc1` [Example 85, N-[2'-Piperazin-1-yl-6-(pyrazin-2-ylamino)-2,4'-bipyridin-4-yl]nicotinamide], the IC50 in assay [1] was less than 100 nM; in assay [2], 100 to 1000 nM; in assay [3], more than 1000 nM; in assay [4], 6 nM; in assay [5] it was 123 nM.

`O=C(O)c1cccc(C(=O)Nc2cc(Nc3cnccn3)nc(-c3ccnc(N4CCNCC4)c3)c2)c1` [Example 88, 3-({[2'-Piperazin-1-yl-6-(pyrazin-2-ylamino)-2,4'-bipyridin-4-yl]amino}carbonyl) benzoic acid]: the IC50 in assay [1] is less than 100 nM; in assay [2], 100 to 1000 nM; in assay [4] (setting [6]) it was 6 nM; in assay [5] it was 81 nM.

In the case of `O=C(O)C[C@H](Cc1ccccc1)C(=O)Nc1cc(Nc2cnccn2)nc(-c2ccnc(N3CCNCC3)c2)c1` [Example 100, (3S)-3-Benzyl-4-oxo-4-{[2'-piperazin-1-yl-6-(pyrazin-2-ylamino)-2,4'-bipyridin-4-yl]amino}butanoic acid], the values for the IC50 in assay [1], in assay [2] and in assay [3] were 100 to 1000 nM, 100 to 1000 nM and more than 1000 nM, respectively.
